# In patent US12534501B2, “Targeting deregulated Wnt signaling in cancer using stabilized alpha-helices of BCL-9” (Dana-Farber Cancer Institute, Inc., priority 2011, dated 2026):
# Numbered stars: 1 amine (or outer) side, 2 acyl side, 3 side chain; on linkers, the order of the positions; unused ones are H or OH. Bridge positions count the residues as written; N and C are the ends. Square brackets hold non-standard residues; d marks the D form. Peptide text beside a SMILES is read from it. ξ: configuration not given here. ξαMeNle(6-ylidene) = CC(CCCC=[*:3])(N[*:1])C(=O)[*:2]; Nle = CCCC[C@H](N)C(=O)O
# Columns and labels:
# Format in all cases: cell-based
# [1] = tested on: Wnt target genes in DLD1 colon cancer cell line; experiment: Affymetrix gene expression profiling / GSEA and qRT-PCR validation
# Procedure: RNA from SAH-BCL9B and vehicle (0.1% DMSO)-treated cells were run on an Affymetrix U133A 2.0 array chip as described (Mollering et al, Nature 462, 182-8 (2009). Statistical analyses were performed in R (http://www.r-project.org). The array data were normalized with rma method (Bolstad, B. M., et al. Bioinformatics 19, 185-93 (2003)) as implemented in the Affy package (http://www.bioconductor.org/packages/2.6/bioc/html/affy.html) and differential expression calculated with empirical Bayes shrinkage of the standard errors toward a common value with LIMMA (http://www.bioconductor.org/packages/2.6/bioc/html/limma.html) (McCarthy, D. J. & Smyth, G. K. Bioinformatics 25, 765-71 (2009); Smyth, G. K. Stat Appl Genet Mol Biol 3, Article3 (2004)). Gene set enrichment analysis was performed using GSEA software (version 2.06) and mSigDB (version 2.5) (Subramanian, A. et al. Proc Natl Acad Sci USA 102, 15545-50 (2005)).
# To further investigate the specificity of SAH-BCL9B in blocking Wnt transcriptional activity, comparative genome-wide expression analyses of Wnt target genes in the DLD1 colon cancer cell line, for which a Wnt transcription pathway signature has been described (L. G. Van der Flier et al., Gastroenterology 132, 628 (2007)), was performed. RNA from triplicate SAH-BCL9B- and vehicle-treated DLD1 samples (10 μM each for 12 hours) was isolated for gene expression profiling analyses. Affymetrix Human U133 Plus 2.0 arrays were processed using the function of the affy Bioconductor package (URL http://www.R-project.org.). Gene sets were compiled from Van der Flier et al. and gene set enrichment and statistical analyses performed using GSEA software (http://www.broad.mit.edu/GSEA) and a two-tailed t-test, respectively. Microarray data has been deposited in the Gene Expression Omnibus (http://www.ncbi.nlm.nih.gov/geo) and comply with MIAME annotation standards. […]
# Colo320 cells [2] = experiment: Combination with 5-fluorouracil, 3H-thymidine incorporation; details: Colo320, increasing concentrations of 5-FU
# Procedure: To test whether the anti-proliferative effect of SAH-BCL9B could synergize with other agents commonly used to treat MM or CRC, combination treatment studies were conducted. Indeed, the cytotoxic effects of 5-fluorouracil on CRC cells and of doxorubicin on MM cells were enhanced by SAH-BCL9B, but not by vehicle or the mutant peptide. See results in FIG. 21.
# [3] = tested on: NFκB luciferase reporter in Colo320 cells; experiment: NFκB reporter gene transcriptional assay; details: selectivity control
# Procedure: Luciferase activity was measured using the Dual Luciferase Reporter Assay System (Promega) as previously described (Sukhdeo, K. et al. Proc Natl Acad Sci USA 104, 7516-21 (2007)). To measure Wnt or NFκB reporter activity, Colo320 cells were transfected with TOP-FLASH, FOP-FLASH plasmid (Millipore Corporation) or NFκB luciferase reporter (Stratagene), along with an internal Renilla control plasmid (hRL-null). Transfection was accomplished using FuGENE (Roche) according to the manufacturer's protocol. The results were normalized to control Renilla activity. The reported data represent the average of three independent transfection experiments performed in triplicate. See results in FIG. 9, FIG. 10.
# caspase-3 or PARP = experiment: Apoptosis by activated caspase-3 and PARP western blotting; details: western analysis
# Procedure: (§1) Cell proliferation assays were performed as described (Sukhdeo, K. et al. Proc Natl Acad Sci USA 104, 7516-21 (2007)). Cell viability was measured using the CellTiter-Glo assay (Promega) according to the manufacturer's instructions. Apoptosis was evaluated by activated caspase-3 and PARP western blotting. See results in FIG. 3A-FIG. 3F, FIG. 13, and FIG. 20.
# Colo320 cells [4] = experiment: Cell viability, CellTiter-Glo; details: 72 h, 5 μM
# Procedure: as §1
# MM1S cells = experiment: Cell viability, CellTiter-Glo; details: 72 h, 5 μM
# Procedure: as §1
# [5] = tested on: Wnt target genes in MM1S cells; experiment: qRT-PCR of Wnt/β-catenin target genes; details: MM1S (FIG. 19A), 10 μM
# Procedure: To measure the effects of vehicle, SAH-BCL9B, and SAH-BCL9MUT on the expression of Wnt/β-catenin target genes, including VEGF, in Colo320 (FIG. 18) and MM1S (FIG. 19) cell lines, quantitative PCR (qRT-PCR) analysis was performed. RNA was extracted with TRIzol Reagent (Invitrogen) according to the manufacturer's protocol. Total RNA (2 μg) was reverse transcribed (SuperScript VILO cDNA synthesis kit, Invitrogen) and qPCR was performed using an Applied Biosynthesis 7500 Real-time PCR system. PCR primers were designed as below: […]
# Analysis of target genes was conducted in quadruplicate using POWER SYBR Green Master Mix (Applied Biosystems) as previously described (M. Mani et al., Cancer Res 69, 7577 (2009)). Transcripts levels were normalized to β-actin expression. These experiments were repeated three times.
# [6] = tested on: β-catenin/BCL9-driven transcription in HCT116 cells; experiment: TOP-FLASH dual luciferase assay with pcDNA-BCL9 transfection; details: HCT116, TOP-FLASH and pcDNA-BCL9, peptides 5 μM, 24 h
# [7] = tested on: INA-6 multiple myeloma cells; experiment: Cell proliferation, thymidine incorporation; details: 5 μM, 24 h, vs vehicle and SAH-BCL9B(R359E)
# Procedure: as §1
compound,measurement,setting,value
CCCC[C@H](NC(=O)[C@H](CCCNC(=N)N)NC(=O)[C@H](CCC(N)=O)NC(=O)[C@@H](NC(=O)C1(C)CCCC=CCCCC(C)(NC(=O)[C@H](CC(C)C)NC(=O)[C@H](CO)NC(=O)[C@H](CCCNC(=N)N)NC(=O)[C@H](CCC(=O)O)NC(=O)[C@H](CCCNC(=N)N)NC(=O)[C@H](Cc2c[nH]cn2)NC(=O)[C@H](CCC(=O)O)NC(=O)[C@H](CC(C)C)NC(=O)[C@H](CCC(N)=O)NC(=O)[C@H](CCC(=O)O)NC(=O)[C@H](CCC(N)=O)NC(=O)[C@H](CO)NC(=O)[C@H](CC(C)C)NC(C)=O)C(=O)N[C@@H]([C@@H](C)O)C(=O)N[C@@H](CC(C)C)C(=O)N[C@@H](CCCNC(=N)N)C(=O)N1)[C@@H](C)CC)C(=O)N[C@@H](CC(C)C)C(=O)N[C@@H](Cc1ccccc1)C(N)=O (some centres unmarked) [SAH-BCL9B] (Ac-LSQEQLEHRERSL[ξαMeNle(6-ylidene)]TLR[ξαMeNle(6-ylidene)]IQR[Nle]LF-NH2; staple 14-18),VEGF-A expression,[1]; DLD1,downregulated
same,Axin2 expression,"[1]; DLD1, 10 μM, 12 hours",among the most down-regulated genes
same,GSEA correlation of down-regulated genes with dominant-negative TCF1 and TCF4,"[1]; DLD1, 10 μM, 12 hours, adenoma and carcinoma signatures",strong and statistically significant correlation
same,enhancement of anti-tumor activity of 5-fluorouracil,Colo320 cells [2],significantly enhanced the anti-tumor activity
same,effect on NFκB reporter activity,[3],no effect
same,caspase-3 or PARP activation,caspase-3 or PARP,did not activate caspase-3 or PARP
same,viability,Colo320 cells [4],no effect
same,viability,MM1S cells,no effect
same,"mRNA levels of VEGF, c-MYC, LGR5, LEF1, and AXIN2",[5],dose-responsively reduced
same,suppression of reporter activity on increasing BCL9 expression,[6],dose-responsively reversed
same,growth by thymidine incorporation,[7],significantly reduced growth
